According to patent US10426782B2, “Pharmaceutical formulations of a pan-RAF kinase inhibitor and processes for their preparation” (Millennium Pharmaceuticals, Inc., priority 2014, dated 2019):

Columns and labels:
Type in all cases: physicochemical
Solubility of Compound 1 = test: Solubility of Compound 1
log p of Compound 1 = test: log p of Compound 1
[1] = Thermal gravimetric analysis (TGA); conditions: elevated temperatures below 200° C.
Procedure: A suitable hot melt extruder (e.g. twin screw, Leistritz Nano-16 mm or Micro-18 mm) is set up with the appropriate supporting equipment, including a cooling conveyor (e.g., Domer model 220M060600D0169 or Nara TBC-309-DC) and feeder with auger (e.g., K-Tron Gravimeteric Feeder e.g., with dual flight 20 mm auger). Example processing parameters are as follows: feed rate: 2.0 kg/hr; screw speed: 250 rpm; and barrel temperature: 170, 140, 90, 50° C. or 1.0 kg/hr; screw speed: 275 rpm; and barrel temperature: 175, 140, 90, 50° C.

solubility (Solubility of Compound 1): < 1000 µg/mL
logP (log p of Compound 1): 3.63
thermal stability by TGA [1]: relatively stable
SMILES: C[C@@H](NC(=O)c1ncnc(N)c1Cl)c1ncc(C(=O)Nc2cc(C(F)(F)F)c(Cl)cn2)s1 [Compound 1, (R)-2-(1-(6-amino-5-chloropyrimidine-4-carboxamido)ethyl)-N-(5-chloro-4-(trifluoromethyl)pyridin-2-yl)thiazole-5-carboxamide]
